What was measured:
[1] = target: FPTase (farnesyl-protein transferase) with H-Ras as substrate for farnesylation (UniProt P29702+P49355); assay: in vitro FTase Inhibition Assay (H-Ras substrate); type: biochemical
Experimental: Enzyme assay: FPTase inhibition in vitro assay was performed according to James, G. L., Brown, M. S., and Goldstein, J. L., Methods in Enzymology, 1995, 255, 38-46; and Garcia, M. A., et al., J. Biol. Chem., 1993, 268,18415-18420.
Materials—Purified FPTase (Moomaw, J. F. and Casey, P. J., J. Biol. Chem., 1992, 267, 17438-17443), purified His6-Ras, inhibitor compounds at 10 mg/ml or 10 mM in 100% DMSO, ^3H-FPP (50,000 dpm/pmol) Amersham, TCA/SDS (6%/2%), TCA (6%), Glass fiber filters ([…]), vacuum manifold or 96 well filtration plates.
Methods—1. Dilute FPTase inhibitors from stock solutions to 2.5× in 2.5% DMSO, 10 mM DTT, 0.5% octyl-B-glucoside. 2. Solution #1 is added to FPTase reaction in a volume of […]. 3. Standard reaction mix, […], contains 50 mM Tris (7.5),[…], 3 mM MgCl2, 20 mM KCl, 5 mM DTT, 0.2% octyl-B-glucoside, 1% DMSO, […], 10 ng FPTase, and various concentrations of FPTase inhibitors. 4. Incubate for 30-90 min at 25° C. 5. Stop reactions with TCA/SDS (6%/2%), hold at 4° C. for 45-60 min. 6. Filter by manifold or 96 well plate, wash filter 3-5× with TCA (6%). 7. Add scintillant to filters, measure ^3H-FPP incorporation into Ras protein.
Analysis of Results—Percent inhibition by test compounds is determined by the following:
(cpm from precipitated Ras with test compounds)−(background cpm)×100=% inhibition.
(cpm from precipitated Ras without test compounds)−(background cpm)

Row | Structure (SMILES) | melting point [°C] | IC50 [1] [nM] | Activity* (% inhib. at 10 μM) [1]
1 | Cc1ccc(S(=O)(=O)C2(Cc3ccc(OCCc4nc(-c5ccccc5)oc4C)cc3)SC(=O)NC2=O)cc1 (stereo not drawn) [Example 1, 5-(4-[2-(5-Methyl-2-phenyloxazol-4-yl)ethoxy]benzyl)-5-(4-methylbenzenesulfonyl)thiazolidine-2,4-dione] | 202 to 204 | 2250 | 
2 | Cc1ccc(S(=O)(=O)C2(Cc3ccc(Br)cc3F)SC(=O)NC2=O)cc1 (stereo not drawn) [Example 2, 5-(4-Bromo-2-fluorobenzyl)-5-(4-methylbenzenesulfonyl)thiazolidine-2,4-dione] | 236 to 237 | 6500 | 
3 | Cc1ccc(S(=O)(=O)C2(Cc3ccc(Cl)c(Cl)c3)SC(=O)NC2=O)cc1 (stereo not drawn) [Example 3, 5-(3,4-Dichlorobenzyl)-5-(4-methylbenzenesulfonyl)thiazolidine-2,4-dione] | 183 to 184 |  | (1%)
4 | O=C1NC(=O)C(Cc2ccc(Br)cc2F)(S(=O)(=O)c2ccc3ccccc3c2)S1 (stereo not drawn) [Example 4, 5-(4-Bromo-2-fluorobenzyl)-5-(naphthalene-2-sulfonyl)thiazolidine-2,4-dione] | 195 to 197 |  | (1%)
5 | Cc1oc(-c2ccccc2)nc1CCOc1ccc(CC2(S(=O)(=O)c3ccc4ccccc4c3)SC(=O)NC2=O)cc1 (stereo not drawn) [Example 5, 5-(4-[2-(5-Methyl-2-phenyloxazol-4-yl)ethoxy]benzyl)-5-(naphthalene-2-sulfonyl)thiazolidine-2,4-dione] | 133 to 136 |  | (−2%)
6 | COc1ccc(S(=O)(=O)C2(Cc3ccccc3)SC(=O)NC2=O)cc1 (stereo not drawn) [Example 6, 5-Benzyl-5-(4-methoxybenzenesulfonyl)thiazolidine-2,4-dione] | 146 to 152 |  | (21%)
7 | COc1ccc(S(=O)(=O)C2(Cc3ccccc3)SC(=O)N(CC(=O)NO)C2=O)cc1 (stereo not drawn) [Example 7, 2-[5-Benzyl-5-(4-methoxybenzenesulfonyl)-2,4-dioxothiazolidin-3-yl]-N-hydroxyacetamide] |  | 2500 | 
8 | COc1ccc(C2(c3cccc(CC4(Sc5ccc(C)cc5)SC(=O)NC4=O)c3)OCCO2)cc1 (stereo not drawn) [Example 8, 5-(3-[2-(4-Methoxyphenyl)[1,3]dioxolan-2-yl]benzyl)-5-(4-methylbenzenesulfanyl)thiazolidine-2,4-dione] |  | 1300 | 
9 | COc1ccc(C2(c3cccc(CC4(S(=O)(=O)c5ccc(C)cc5)SC(=O)NC4=O)c3)OCCO2)cc1 (stereo not drawn) [Example 9, 5-(3-[2-(4-Methoxyphenyl)[1,3]dioxolan-2-yl]benzyl)-5-(4-methylbenzenesulfonyl)thiazolidine-2,4-dione] |  | 1200 | 
10 | COc1ccc(C(=O)c2cccc(CC3(S(=O)(=O)c4ccc(C)cc4)SC(=O)NC3=O)c2)cc1 (stereo not drawn) [Example 10, 5-(3-(4-methoxybenzoyl)benzyl)-5-(4-methylbenzenesulfonyl)thiazolidine-2,4-dione] |  | 4250 | 
11 | COc1ccc(C(=O)c2cccc(CC3(Sc4ccc(C)cc4)SC(=O)NC3=O)c2)cc1 (stereo not drawn) [Example 11, 5-(3-(4-methoxybenzoyl)benzyl)-5-(4-methylbenzenesulfanyl)thiazolidine-2,4-dione] |  | 2500 | 
12 | COc1ccc(C(O)c2cccc(CC3(Sc4ccc(C)cc4)SC(=O)NC3=O)c2)cc1 (stereo not drawn) [Example 12, 5-(3-[Hydroxy(4-methoxyphenyl)methyl]-benzyl)-5-(4-methylbenzenesulfanyl)thiazolidine-2,4-dione] |  | 3700 | 
13 | Cc1ccc(S(=O)(=O)C2(Cc3ccc(Br)cc3)SC(=O)NC2=O)cc1 (stereo not drawn) [Example 13] |  |  | (28%)
14 | Cc1ccc(S(=O)(=O)C2(Cc3ccc(-c4ccccc4C#N)cc3)SC(=O)NC2=O)cc1 (stereo not drawn) [Example 14, 5-[2′-cyanobiphen-4-ylmethyl]-5-(4-methylbenzenesulfonyl)thiazolidine-2,4-dione] |  | 77 | 
15 | Cc1ccc(S(=O)(=O)C2(Cc3ccc(-c4ccccc4-c4nnn[nH]4)cc3)SC(=O)NC2=O)cc1 (stereo not drawn) [Example 15, 5-[2′-(1H-Tetrazol-5-yl)biphen-4-ylmethyl]-5-(4-methylbenzenesulfonyl)thiazolidine-2,4-dione] |  |  | (4%)
16 | COc1ccc(S(=O)(=O)C2(Cc3ccc(-c4ccccc4C#N)cc3)SC(=O)NC2=O)cc1 (stereo not drawn) [Example 16, 5-[2′-cyanobiphen-4-ylmethyl]-5-(4-methoxybenzenesulfonyl)thiazolidine-2,4-dione] |  | 350 | 
17 | COc1ccc(Cc2cccc(CC3(Sc4ccc(C)cc4)SC(=O)NC3=O)c2)cc1 (stereo not drawn) [Example 17, 5-[3-(4-Methoxybenzyl)benzyl]-5-(4-methylbenzenesulfanyl)thiazolidine-2,4-dione] |  | 2900 | 
18 | Cc1ccc(SC2(Cc3cccc(C4(c5cccs5)OCCO4)c3)SC(=O)NC2=O)cc1 (stereo not drawn) [Example 18, 5-[3-(2-Thiophen-2-yl[1,3]dioxolan-2-yl)benzyl]-5-(4-methylbenzenesulfanyl)thiazolidine-2,4-dione] |  | 4500 | 
19 | Cc1ccc(SC2(Cc3cccc(C(=O)c4cccs4)c3)SC(=O)NC2=O)cc1 (stereo not drawn) [Example 19, 5-[3-(Thiophene-2-carbonyl)benzyl]-5-(4-methylbenzenesulfanyl)thiazolidine-2,4-dione] |  | 2800 | 
20 | COc1ccc(S(=O)(=O)C2(Cc3ccc(-c4ccccc4)cc3)SC(=O)NC2=O)cc1 (stereo not drawn) [Example 20, 5-Biphen-4-ylmethyl-5-(4-methoxybenzenesulfonyl)thiazolidine-2,4-dione] | 119 to 122 | 1700 | 
21 | COc1ccc(S(=O)(=O)C2(Cc3ccc(-c4ccc(Cl)cc4)cc3)SC(=O)NC2=O)cc1 (stereo not drawn) [Example 21, 5-(4′-Chlorobiphen-4-ylmethyl)-5-(4-methoxybenzenesulfonyl)thiazolidine-2,4-dione] | 197 to 200 | 1000 | 
22 | COc1ccc(S(=O)(=O)C2(Cc3ccc(-c4cccc(C(F)(F)F)c4)cc3)SC(=O)NC2=O)cc1 (stereo not drawn) [Example 22, 5-(4-Methoxybenzenesulfonyl)-5-(3′-(trifluoromethyl)biphen-4-ylmethyl)thiazolidine-2,4-dione] |  | 2500 | 
23 | COc1ccc(S(=O)(=O)C2(Cc3ccc(-c4cc(C(F)(F)F)cc(C(F)(F)F)c4)cc3)SC(=O)NC2=O)cc1 (stereo not drawn) [Example 23, 5-(3′,5′-Bis(trifluoromethyl)biphen-4-ylmethyl)-5-(4-methoxybenzenesulfonyl)thiazolidine-2,4-dione] | 122 to 125 | > 10000 | 
24 | COc1ccc(S(=O)(=O)C2(Cc3ccc(-c4ccc(Cl)cc4Cl)cc3)SC(=O)NC2=O)cc1 (stereo not drawn) [Example 24, 5-(2′,4′-Dichlorobiphen-4-ylmethyl)-5-(4-methoxybenzenesulfonyl)thiazolidine-2,4-dione] | 104 to 107 | 740 | 
25 | Cc1ccc(SC2(Cc3cccc(Oc4cccc(Cl)c4)c3)SC(=O)NC2=O)cc1 (stereo not drawn) [Example 25, 5-[3-(3-Chlorophenoxy)benzyl]-5-(4-methylbenzenesulfanyl)thiazolidine-2,4-dione] |  | 3500 | 
26 | Cc1ccc(S(=O)(=O)C2(Cc3cccc(C4(c5cccs5)OCCO4)c3)SC(=O)NC2=O)cc1 (stereo not drawn) [Example 26, 5-[3-(2-thiophen-2-yl[1,3]dioxolan-2-yl)benzyl]-5-(4-methylbenzenesulfonyl)thiazolidine-2,4-dione] |  | 6000 | 
